Bounds are passed on as bounds.

As a reminder, the IC50 is the point on the concentration scale where inhibition reaches its midpoint.

Test [1] addresses T1, Recombinant ROCK1 (amino acids 1-477) (Homo sapiens, UniProt Q13464).
T1 construct: Recombinant ROCK1 (amino acids 1-477); by word order, ROCK1 from Carna Biosciences
Put plainly: ROCK inhibition assay, LANCE Ultra TR-FRET kinase assay (ROCK1). In kind it is biochemical. The conditions noted are these: 1 μM ATP, 50 nM ULight-CREBtide substrate. In outline:
(§1)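 LANCE Ultra TR-FRET kinase assay with recombinant ROCK1 (aa 1-477) or ROCK2 (aa 5-554), 50 nM ULight-CREBtide and ATP at 1 μM (ROCK1) or 4 μM (ROCK2) in HEPES pH 7.5 with MgCl2, 1 h at room temperature. EDTA stop with Eu anti-phospho-CREB Ser133 antibody; 665/615 nm read gives IC50.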

Test [2] deals with T2, Recombinant ROCK2 (amino acids 5-554) (Homo sapiens, UniProt O75116).
T2 construct: ROCK2 (amino acids 5-554); by word order, ROCK2 from SignalChem
Put plainly: ROCK inhibition assay, LANCE Ultra TR-FRET kinase assay (ROCK2). In kind it is biochemical. The conditions noted are these: 4 μM ATP, 50 nM ULight-CREBtide substrate. In outline: as §1
On the technique in general: TR-FRET usually uses a lanthanide donor and a delayed reading to cut background.

T1 sequence (Q13464 1-477): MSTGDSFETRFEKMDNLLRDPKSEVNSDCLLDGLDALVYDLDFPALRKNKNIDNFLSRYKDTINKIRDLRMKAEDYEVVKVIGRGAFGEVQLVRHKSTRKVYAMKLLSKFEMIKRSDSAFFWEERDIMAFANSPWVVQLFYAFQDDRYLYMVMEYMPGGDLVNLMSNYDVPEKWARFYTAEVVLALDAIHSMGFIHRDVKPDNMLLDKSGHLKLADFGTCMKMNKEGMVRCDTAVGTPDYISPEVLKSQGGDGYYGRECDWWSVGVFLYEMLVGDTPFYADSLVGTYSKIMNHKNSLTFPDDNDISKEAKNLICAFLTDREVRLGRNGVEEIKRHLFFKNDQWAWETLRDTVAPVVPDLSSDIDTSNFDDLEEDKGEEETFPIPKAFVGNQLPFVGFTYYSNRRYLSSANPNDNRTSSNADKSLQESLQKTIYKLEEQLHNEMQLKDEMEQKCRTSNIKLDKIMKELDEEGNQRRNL
T2 sequence (O75116 5-554): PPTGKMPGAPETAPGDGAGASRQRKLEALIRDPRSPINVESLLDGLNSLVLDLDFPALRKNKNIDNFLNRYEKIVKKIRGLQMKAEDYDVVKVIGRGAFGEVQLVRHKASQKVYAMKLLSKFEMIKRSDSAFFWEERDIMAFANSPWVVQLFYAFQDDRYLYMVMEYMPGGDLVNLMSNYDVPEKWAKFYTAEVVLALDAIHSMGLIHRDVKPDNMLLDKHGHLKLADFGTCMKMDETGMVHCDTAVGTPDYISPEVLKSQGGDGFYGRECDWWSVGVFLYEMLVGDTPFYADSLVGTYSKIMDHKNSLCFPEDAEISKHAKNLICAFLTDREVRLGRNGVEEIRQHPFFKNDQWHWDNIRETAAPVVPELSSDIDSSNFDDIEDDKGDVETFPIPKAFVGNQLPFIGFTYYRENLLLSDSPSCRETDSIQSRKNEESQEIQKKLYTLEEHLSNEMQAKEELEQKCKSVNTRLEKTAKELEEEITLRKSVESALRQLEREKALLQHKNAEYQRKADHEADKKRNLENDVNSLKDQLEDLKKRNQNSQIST

As to `C[C@H](c1cccc(C(=O)NC2CCN(C)CC2)c1)n1cnc2cc(-c3cn[nH]c3C(F)(F)F)ccc2c1=O` [Compound 450], the IC50 in test [1] and in test [2] was less than 10 nM each time.

Regarding `Cn1nccc1-c1ccc2c(=O)n(Cc3cccc(C(=O)NC4COC4)c3)ccc2c1` [Compound 110], the IC50 in test [1] was 101 to 500 nM; in test [2] it was less than 10 nM.

On to `N#Cc1cccc(C(CN)n2cnc3cc(-c4ccnc(N)c4)ccc3c2=O)c1` (centres unmarked) [Compound 501], for which the IC50 in test [1] is more than 501 nM; in test [2], 100 to 500 nM.

Consider `O=C(NCC1CCN(C2CC2)CC1)c1cc(F)cc(Cn2ccc3cc(N4CCOCC4)ccc3c2=O)c1` [Compound 226], for which the IC50 was 101 to 500 nM in test [1] and 10 to 100 nM in test [2].

Consider `Cc1nocc1-c1ccc2c(=O)n(Cc3cccc(C(=O)NCCc4cccnc4)c3)cnc2c1` [Compound 419], for which the IC50 in test [1] and in test [2] was less than 10 nM each time.

As to `CNC(=O)c1cc(F)cc(Cn2ccc3cc(-c4c[nH]nc4C(F)F)ncc3c2=O)c1` [Compound 252], the 50% inhibitory concentration (IC50) in test [1] was 11 to 100 nM; in test [2], less than 10 nM.

In the case of `O=C(NCc1ccc(F)nc1)c1cc(F)cc(Cn2ccc3cc(-c4c[nH]nc4C(F)(F)F)ccc3c2=O)c1` [Compound 129], the half-maximal inhibitory concentration (IC50) is 101 to 500 nM in test [1] and less than 10 nM in test [2].

`O=C(NCC1CCN(CC(F)F)CC1)c1cccc(Cn2ccc3cc(N4CCOCC4)ccc3c2=O)c1` [Compound 219]: the IC50 in test [1] is 101 to 500 nM; in test [2], 10 to 100 nM.

As to `COc1cccc([C@@H](CO)N2CNc3cc(-c4ccncc4)ccc3C2=O)c1` [Compound 527], the concentration for half-maximal inhibition (IC50) was more than 501 nM in test [1] and 100 to 500 nM in test [2].

With `CNC(=O)c1cccc(Cn2ccc3cc(-c4ccncc4)ccc3c2=O)c1` [Compound 325], the IC50 was 101 to 500 nM in test [1] and 10 to 100 nM in test [2].

For the compound `O=C(NCCO)c1cccc(Cn2cnc3cc(-c4cn[nH]c4C(F)F)ccc3c2=O)c1` [Compound 393], the IC50 in test [1] was 11 to 100 nM; in test [2], less than 10 nM.

For the compound `Cn1ccc(NC(=O)c2cccc(Cn3cnc4cc(-c5cn[nH]c5C(F)(F)F)ccc4c3=O)c2)n1` [Compound 374], the half-inhibitory concentration (IC50) in test [1] is 11 to 100 nM; in test [2], less than 10 nM.

As to `COc1cccc(Cn2ccc3cc(-c4c[nH]nc4C(F)(F)F)ccc3c2=O)c1` [Compound 6], the IC50 is 11 to 100 nM in test [1] and less than 10 nM in test [2].

Regarding `O=C(Nc1ccccc1)c1cccc(Cn2ccc3cc(-c4cn[nH]c4)ccc3c2=O)c1` [Compound 29], the results for the IC50 in test [1] and in test [2] were more than 501 nM and 100 to 500 nM, respectively.

As for `Cc1n[nH]cc1-c1ccc2c(=O)n(Cc3cccc(C(=O)NCC(F)(F)F)c3)ccc2c1` [Compound 41], the values for the IC50 in test [1] and in test [2] were 101 to 500 nM and 10 to 100 nM, respectively.

As for `Cn1nccc1-c1ccc2c(=O)n(Cc3cccc(C(=O)NCC(F)(F)F)c3)ccc2c1` [Compound 103], the IC50 in test [1] lay in the range of 101 to 500 nM; in test [2] it was 10 to 100 nM.

Regarding `CNC(=O)c1cccc(Cn2ccc3cc(-c4ccnn4C)ncc3c2=O)c1` [Compound 240], the IC50 is 101 to 500 nM in test [1] and 10 to 100 nM in test [2].

On to `CNC(=O)c1cccc(Cn2ccc3cc(-c4cc[nH]c4)ccc3c2=O)c1` [Compound 305], for which the values for the IC50 in test [1] and in test [2] were 101 to 500 nM and 100 to 500 nM, respectively.

For the compound `CN(C)CCNC(=O)c1cccc(Cn2cnc3cc(-c4cn[nH]c4C(F)F)ccc3c2=O)c1` [Compound 394], the IC50 in test [1] was 11 to 100 nM; in test [2] it was 10 to 100 nM.

Regarding `CNC(=O)c1cccc([C@H](C)n2cnc3cc(-c4cn[nH]c4Cl)ccc3c2=O)c1` [Compound 468], the IC50 was 101 to 500 nM in test [1] and 10 to 100 nM in test [2].

As to `O=C(Nc1ccno1)c1cccc(Cn2ccc3cc(N4CCOCC4)ccc3c2=O)c1` [Compound 206], the figures for the half-maximal inhibitory concentration (IC50) in test [1] and in test [2] were more than 501 nM and more than 500 nM, respectively.

In the case of `Cn1nccc1-c1ccc2c(=O)n(Cc3cccc(C(=O)NC4CCOCC4)c3)ccc2c1` [Compound 104], the IC50 was 101 to 500 nM in test [1] and 10 to 100 nM in test [2].

For the compound `CN1CCC(NC(=O)c2cccc(Cn3cnc4cc(-c5cn[nH]c5C(F)(F)F)ccc4c3=O)c2)CC1` [Compound 378], the half-maximal inhibitory concentration (IC50) in test [1] and in test [2] was less than 10 nM in each case.

For the compound `O=C(NC1CCOCC1)c1cccc(Cn2cnc3cc(-c4cn[nH]c4C(F)(F)F)ccc3c2=O)c1` [Compound 376], the figures for the IC50 in test [1] and in test [2] were 11 to 100 nM and less than 10 nM, respectively.

For the compound `CNC(=O)c1cccc(Cn2cc(C(C)O)c3cc(-c4ccnc(N)c4)ccc3c2=O)c1` (centres unmarked) [Compound 545], the IC50 in test [1] was 11 to 100 nM; in test [2], less than 10 nM.

As for `Nc1cc(-c2ccc3c(=O)n(Cc4cccc(C(=O)NCCc5ccccc5)c4)ccc3c2)ccn1` [Compound 185], the half-inhibitory concentration (IC50) in test [1] was 101 to 500 nM; in test [2], 10 to 100 nM.

Regarding `Nc1cc(-c2ccc3c(=O)n(Cc4cccc(C(=O)Nc5ccno5)c4)ccc3c2)ccn1` [Compound 203], the 50% inhibitory concentration (IC50) in test [1] was more than 501 nM; in test [2] it was 100 to 500 nM.

With `Nc1cc(-c2ccc3c(=O)n(Cc4cccc(C(=O)NC5CCOCC5)c4)cnc3c2)ccn1` [Compound 435], the half-maximal inhibitory concentration (IC50) in test [1] lay in the range of 101 to 500 nM; in test [2], 10 to 100 nM.

As for `O=C(N[C@H]1CC[C@@H](O)CC1)c1cc(F)cc(Cn2ccc3cc(-c4c[nH]nc4Cl)ccc3c2=O)c1` [Compound 66], the IC50 is 11 to 100 nM in test [1] and less than 10 nM in test [2].

For the compound `COc1cccc([C@@H](CO)N2CNc3cc(-c4ccnn4C)ccc3C2=O)c1` [Compound 531], the half-maximal inhibitory concentration (IC50) in test [1] was more than 501 nM; in test [2], 100 to 500 nM.

As for `COc1cccc(Cn2cnc3cc(-c4cn[nH]c4)ccc3c2=O)c1` [Compound 354, 3-(3-methoxybenzyl)-7-(1H-pyrazol-4-yl)quinazolin-4(3H)-one], the IC50 in test [1] lay in the range of 11 to 100 nM; in test [2], 10 to 100 nM.

Regarding `Cc1nocc1-c1ccc2c(=O)n(Cc3cc(F)cc(C(=O)Nc4nc5c(s4)CCN(C(C)C)C5)c3)ccc2c1` [Compound 159], the IC50 is 11 to 100 nM in test [1] and less than 10 nM in test [2].

As to `CNC(=O)c1cccc(Cn2ccc3cc(-c4cnnn4C)ccc3c2=O)c1` [Compound 327], the IC50 is more than 501 nM in test [1] and more than 500 nM in test [2].

Take `Cc1nocc1-c1ccc2c(=O)n(Cc3cccc(C(=O)NCC4CCNCC4)c3)cnc2c1` [Compound 418]: the IC50 in test [1] and in test [2] was less than 10 nM each time.

Turning to `Cc1nocc1-c1ccc2c(=O)n(Cc3cccc(C(=O)NCC4CCN(CC(F)(F)F)CC4)c3)ccc2c1` [Compound 83], the half-maximal inhibitory concentration (IC50) was 101 to 500 nM in test [1] and 10 to 100 nM in test [2].

Turning to `Cc1nocc1-c1ccc2c(=O)n(Cc3cc(F)cc(C(=O)NCc4ccc(F)nc4)c3)ccc2c1` [Compound 147], the results for the IC50 in test [1] and in test [2] were 11 to 100 nM and less than 10 nM, respectively.

On to `O=c1c2ccc(-c3c[nH]nc3Cl)cc2ccn1Cc1cccc(O)c1` [Compound 20], for which the IC50 in test [1] and in test [2] was less than 10 nM in each case.

As to `N#Cc1cccc(C(CN)n2cnc3cc(-c4cn[nH]c4Cl)ccc3c2=O)c1` (centres unmarked) [Compound 504], the 50% inhibitory concentration (IC50) in test [1] is more than 501 nM; in test [2] it was 100 to 500 nM.

Consider `Cc1nocc1-c1ccc2c(=O)n(Cc3cc(F)cc(C(=O)Nc4ccc5c(c4)CCNC5)c3)ccc2c1` [Compound 162], for which the IC50 in test [1] and in test [2] was less than 10 nM in each case.

`Cc1nocc1-c1ccc2c(=O)n(Cc3cc(F)cc(C(=O)NCCN4CCOCC4)c3)ccc2c1` [Compound 143]: the 50% inhibitory concentration (IC50) in test [1] fell in the range of 101 to 500 nM; in test [2], 10 to 100 nM.

Regarding `Cc1nocc1-c1ccc2c(=O)n(Cc3cc(F)cc(C(=O)NCCN4CCN(C)CC4)c3)ccc2c1` [Compound 144], the half-inhibitory concentration (IC50) in test [1] is 11 to 100 nM; in test [2], less than 10 nM.

As for `C[C@H](c1cccc(C(=O)NCCN(C)C)c1)n1cnc2cc(-c3cn[nH]c3C(F)F)ccc2c1=O` [Compound 460], the IC50 in test [1] and in test [2] was less than 10 nM each time.

On to `COc1cccc(C(CO)n2cnc3cc(-c4cn[nH]c4C)ccc3c2=O)c1` (centres unmarked) [Compound 489], for which the half-inhibitory concentration (IC50) lay in the range of 11 to 100 nM in test [1] and 10 to 100 nM in test [2].

Turning to `CN1CCC(CNC(=O)c2cccc(Cn3ccc4cc(-c5ccnn5C)ccc4c3=O)c2)CC1` [Compound 171], the figures for the IC50 in test [1] and in test [2] were 11 to 100 nM and less than 10 nM, respectively.

For `CN1CCC(CNC(=O)c2cc(F)cc(Cn3ccc4cc(-c5c[nH]nc5Br)ncc4c3=O)c2)CC1` [Compound 273], the IC50 in test [1] and in test [2] was less than 10 nM in each case.

Turning to `Cn1nccc1-c1ccc2c(=O)n(Cc3cc(F)cc(C(=O)N[C@H]4CC[C@H](O)CC4)c3)ccc2c1` [Compound 164], the values for the 50% inhibitory concentration (IC50) in test [1] and in test [2] were 101 to 500 nM and 10 to 100 nM, respectively.

For `CNC(=O)c1cc([C@@H](C)n2cnc3cc(-c4cn[nH]c4C(F)(F)F)ccc3c2=O)ccc1F` [Compound 456], the IC50 in test [1] lay within 101 to 500 nM; in test [2] it was 10 to 100 nM.

For the compound `O=C(NCCO)c1cc(F)cc(Cn2ccc3cc(-c4c[nH]nc4Cl)ccc3c2=O)c1` [Compound 65], the half-maximal inhibitory concentration (IC50) in test [1] lay within 101 to 500 nM; in test [2] it was 10 to 100 nM.

Regarding `O=C(NCC1COC1)c1cc(F)cc(Cn2ccc3cc(-c4c[nH]nc4C(F)F)ccc3c2=O)c1` [Compound 59], the IC50 in test [1] was 11 to 100 nM; in test [2], less than 10 nM.

On to `Cc1n[nH]cc1-c1ccc2c(=O)n(Cc3cccc(C(=O)Nc4ccn(C)n4)c3)ccc2c1` [Compound 32], for which the IC50 in test [1] is 101 to 500 nM; in test [2], less than 10 nM.

In the case of `CC(C)N1CCC(CNC(=O)c2cccc(Cn3ccc4cc(N5CCOCC5)ccc4c3=O)c2)CC1` [Compound 223], the half-maximal inhibitory concentration (IC50) in test [1] lay within 101 to 500 nM; in test [2], 10 to 100 nM.

Regarding `CC(=O)Nc1cccc(Cn2ccc3cc(-c4conc4C)ccc3c2=O)c1` [Compound 347], the IC50 was in the range of 101 to 500 nM in test [1] and 10 to 100 nM in test [2].
